Test results as given in US8946273B2, “S-Triazolyl alpha-mercapto acetanilides as inhibitors of HIV reverse transcriptase” (priority 2011, dated 2015).
Read-outs that look alike come from different tables or passages of the source.

What was measured:
[1] = system: wild type HIV-1; assay: microbe, parasite or virus in culture; format: cell-based, human immunodeficiency virus type 1 (HIV-1)
[2] = molecular target: T1, wild-type HIV reverse transcriptase (Human immunodeficiency virus type 1 group M subtype B, UniProt P04585); assay: Activity on wild type reverse transcriptase (Table 1 IC50 WT); format: biochemical
T1 construct: wild-type and four mutant HIV reverse transcriptases
Description: Using similar methods as described above, 2-[5-bromo-4-(4-cyclopropylnaphthalen-1-yl)-4H-[1,2,4]triazol-3-ylsulfanyl]-N-(2-methyl-4-sulfamoylphenyeacetamide and 2-[5-bromo-4-(4-ethylnaphthalen-1-yl)-4H-[1,2,4]triazol-3-ylsulfanyl]-N-(2-chloro-4-sulfamoylphenyl)-acetamide were synthesized, as were the N-4-carbamyl analog, 2-[5-bromo-4-(4-ethyl-naphthalen-1-yl)-4H-[1,2,4]triazol-3-ylsulfanyl]-N-(2-chloro-4-carbamoylphenyl)-acetamide and the N-4-carboxyl analog. Each of the compounds was tested against a panel of mutant HIV reverse transcriptases, including 20 of the 22 of the mutants that are found in about 2% or more of the patient samples that are resistant to the most widely used non-nucleoside HIV-RT inhibitor efavirenz ((4S)-6-chloro-4-(cyclopropylethynyl)-1,4-dihydro-4-(trifluoromethyl)-2H-3,1-benzoxazin-2-one). […] In most cases both criteria were met. […] […].
Compounds of the invention were tested against the wild-type and four mutant HIV reverse transcriptases. The results are listed in Table 1 as EC50 (nM) and IC50 (nM). In the Table, A represents <50 nM, B is between 50 and 100 nM, and C is >100 nM. ND is not determined.

[3] = molecular target: mutant HIV reverse transcriptases (Human immunodeficiency virus type 1, UniProt P12497, Y768C, cells depend on it); format: cell-based
[4] = molecular target: mutant HIV reverse transcriptases (Human immunodeficiency virus type 1, UniProt P12497, Y775L, cells depend on it); format: cell-based
[5] = Human immunodeficiency virus 1, Hela-JC53, read-out: EC50 WT
[6] = read-out: EC50 WT, wild-type (WT) HIV-1
[7] = read-out: IC50 WT RT, wild-type (WT) RT

Compound	EC50 [1, 5]	IC50 [2]	EC50 [3]	EC50 [4]	EC50 [1, 6]	IC50 [2, 7]
O=C(CSc1nnc(Br)n1-c1ccc(C2CC2)cc1C(F)(F)F)Nc1ccc(C(=O)O)cc1Cl [compound 30]	< 50 nM	< 50 nM	< 50 nM	> 100 nM		
CCOC(=O)CCNC(=O)c1ccc(NC(=O)CSc2nnc(Br)n2-c2ccc(CC)c3ccccc23)c(Cl)c1 [compound 107]	< 50 nM	< 50 nM	< 50 nM	> 100 nM		
Cc1cc(S(N)(=O)=O)ccc1NC(=O)CSc1nnc(CF)n1-c1ccc(C)c2c1CCCC2 [compound 65]	< 50 nM	< 50 nM	< 50 nM	50 to 100 nM		
Cc1ccc2c(C)cc(C)c(-n3c(SCC(=O)Nc4ccc(S(N)(=O)=O)cc4C)nnc3C(F)F)c2n1 [compound 64]	< 50 nM	< 50 nM	< 50 nM	< 50 nM		
Cc1cc(C2CC2)c2ccccc2c1-n1c(Br)nnc1SCC(=O)Nc1ccc(S(N)(=O)=O)cc1Cl [compound 50]	< 50 nM	< 50 nM	< 50 nM	< 50 nM		
CNS(=O)(=O)c1ccc(NC(=O)CSc2nnc(C(F)F)n2-c2ccc(C)c3ccccc23)c(Cl)c1 [compound 54]	< 50 nM	< 50 nM	< 50 nM	50 to 100 nM		
CCCCNC(=O)c1ccc(NC(=O)CSc2nnc(Br)n2-c2ccc(CC)c3ccccc23)c(Cl)c1 [compound 121]	< 50 nM	50 to 100 nM	< 50 nM	< 50 nM		
Cc1ccc(-n2c(SCC(=O)Nc3ccc(C(=O)O)cc3Cl)nnc2C(F)F)c2c1CCCC2 [compound 2]	< 50 nM	< 50 nM	< 50 nM	< 50 nM		
O=C(CSc1nnc(Br)n1-c1ccc(C2CC2)c2ccccc12)Nc1ccc(C(=O)N[C@@H](Cc2ccc(O)cc2)C(=O)O)cc1Cl [compound 116]	50 to 100 nM	< 50 nM	> 100 nM	> 100 nM		
CCc1ccc(-n2c(Br)nnc2SCC(=O)Nc2ccc(S(N)(=O)=O)cc2Br)c2ccccc12 [compound 73]	< 50 nM	< 50 nM	< 50 nM	< 50 nM		
CCc1ccc(-n2c(Br)nnc2SCC(=O)Nc2ccc(C(=O)NCCN3CCCC3)cc2Cl)c2ccccc12 [compound 123]	< 50 nM	< 50 nM	< 50 nM	< 50 nM		
CCc1ccc(-n2c(C)nnc2SCC(=O)Nc2ccc(S(N)(=O)=O)cc2C)c2c1CCCC2 [compound 41]	< 50 nM	< 50 nM	< 50 nM	> 100 nM		
O=C(CSc1nnc(Br)n1-c1ccc(C2CC2)c2ccccc12)Nc1ccc(C(=O)O)cc1Cl [compound 12]			< 50 nM	< 50 nM	< 50 nM	< 50 nM
CCc1ccc(-n2c(Br)nnc2SCC(=O)Nc2ccc(C(=O)N3CCC(O)CC3)cc2Cl)c2ccccc12 [compound 134]	< 50 nM	< 50 nM	< 50 nM	< 50 nM		
CC[C@H](C)[C@H](NC(=O)c1ccc(NC(=O)CSc2nnc(Br)n2-c2ccc(C3CC3)c3ccccc23)c(Cl)c1)C(=O)O [compound 135]	< 50 nM	< 50 nM	< 50 nM	> 100 nM		
CCCCCCNC(=O)c1ccc(NC(=O)CSc2nnc(Br)n2-c2ccc(CC)c3ccccc23)c(Cl)c1 [compound 122]	< 50 nM	< 50 nM	< 50 nM	50 to 100 nM		
COc1cccc2c(-n3c(Br)nnc3SCC(=O)Nc3ccc(C(=O)O)cc3Cl)cccc12 [compound 27]	< 50 nM	< 50 nM	< 50 nM	> 100 nM		
CCc1ccc(-n2c(CF)nnc2SCC(=O)Nc2ccc(S(N)(=O)=O)cc2C)c2ccccc12 [compound 49]	< 50 nM	< 50 nM	< 50 nM	> 100 nM		
CCc1ccc(-n2c(SCC(=O)Nc3ccc(C(=O)O)cc3C)nnc2C(F)F)c2ccccc12 [compound 3]	< 50 nM	< 50 nM	50 to 100 nM	> 100 nM		
CCc1ccc(-n2c(CF)nnc2SCC(=O)Nc2ccc(S(N)(=O)=O)cc2Cl)c2c1CCCC2 [compound 67]	< 50 nM	< 50 nM	< 50 nM	< 50 nM		
O=C(CSc1nnc(Br)n1-c1ccc(C2CCC2)c2ccccc12)Nc1ccc(C(=O)O)cc1Cl [compound 26]	< 50 nM	< 50 nM	< 50 nM	< 50 nM		

Compound	EC50 [1, 5]	IC50 [2]	EC50 [3]	EC50 [4]	EC50 [1, 6]	IC50 [2, 7]
CCNC(=O)c1ccc(NC(=O)CSc2nnc(Br)n2-c2ccc(CC)c3ccccc23)c(Cl)c1 [compound 131]	< 50 nM	< 50 nM	< 50 nM	< 50 nM		
COc1ccc2c(C3CC3)ccc(-n3c(Br)nnc3SCC(=O)Nc3ccc(S(=O)(=O)O)cc3Cl)c2c1 [compound 19]			50 to 100 nM	> 100 nM	50 to 100 nM	< 50 nM
Cc1cc(S(N)(=O)=O)ccc1NC(=O)C(C)Sc1nnc(Br)n1-c1c(C)ccc2ccccc12 (centres unmarked) [compound 142]	< 50 nM	< 50 nM	< 50 nM	> 100 nM		
Cc1cc(S(N)(=O)=O)ccc1NC(=O)CSc1nnc(Br)n1-c1ccc(C2CC2)c2ccccc12 [compound 40]	< 50 nM	< 50 nM	< 50 nM	< 50 nM		
CCc1ccc(-n2c(Br)nnc2SCC(=O)Nc2ccc(S(=O)(=O)O)cc2Br)c2ccccc12 [compound 20]	> 100 nM	< 50 nM	> 100 nM	> 100 nM		
O=C(CSc1nnc(Br)n1-c1ccc(C2CC2)c2ccccc12)Nc1ccc(C(=O)O)cc1Cl [compound 10]	< 50 nM	< 50 nM	< 50 nM	< 50 nM		
NS(=O)(=O)c1ccc(NC(=O)CSc2nnc(Br)n2-c2ccc(C3CC3)cc2Cl)c(Cl)c1 [compound 75]	< 50 nM	< 50 nM	< 50 nM	< 50 nM		
CCc1ccc(-n2c(Br)nnc2SCC(=O)Nc2ccc(C(=O)N[C@@H](CO)C(=O)OC)cc2Cl)c2ccccc12 [compound 140]	< 50 nM	< 50 nM	< 50 nM	< 50 nM		
CCc1ccc(-n2c(Br)nnc2SCC(=O)Nc2ccc(C(=O)O)cc2C)c2ccccc12 [compound 6]	< 50 nM	< 50 nM	< 50 nM	> 100 nM		
Cc1cc(C)c2ccccc2c1-n1c(SCC(=O)Nc2ccc(S(N)(=O)=O)cc2Cl)nnc1C(F)(F)F [compound 83]	< 50 nM	< 50 nM	< 50 nM	< 50 nM		
CCc1ccc(-n2c(Br)nnc2SCC(=O)Nc2ccc(C(=O)NCC(=O)O)cc2Cl)c2ccccc12 [compound 105]	< 50 nM	< 50 nM	< 50 nM	50 to 100 nM		
NS(=O)(=O)c1ccc(NC(=O)CSc2nnc(C(F)F)n2-c2ccc(C3CC3)c3ccccc23)c(Cl)c1 [compound 44]	< 50 nM	< 50 nM	< 50 nM	< 50 nM		
CCOC(=O)N1CCC(NC(=O)c2ccc(NC(=O)CSc3nnc(Br)n3-c3ccc(CC)c4ccccc34)c(Cl)c2)CC1 [compound 126]	< 50 nM	< 50 nM	< 50 nM	< 50 nM		
CCc1ccc(-n2c(Br)nnc2SCC(=O)Nc2ccc(C(=O)NCC(=O)OC)cc2Cl)c2ccccc12 [compound 98]	< 50 nM	< 50 nM	< 50 nM	< 50 nM		
Cc1cc(S(N)(=O)=O)ccc1NC(=O)CSc1nnc(Br)n1-c1ccc2c3c(cccc13)CC2 [compound 38]	< 50 nM	< 50 nM	< 50 nM	< 50 nM		
Cc1ccc(-n2c(SCC(=O)Nc3ccc(S(=O)(=O)NC(C(=O)O)C(C)C)cc3Cl)nnc2C(F)F)c2c1CCCC2 (centres unmarked) [compound 60]	> 100 nM	< 50 nM	> 100 nM	> 100 nM		
CCc1ccc(-n2c(Br)nnc2SCC(=O)Nc2ccc(C(=O)NCCO)cc2Cl)c2ccccc12 [compound 132]	< 50 nM	< 50 nM	< 50 nM	< 50 nM		
CCc1ccc(-n2c(Br)nnc2SCC(=O)Nc2ccc(C(=O)NCC3CCNCC3)cc2Cl)c2ccccc12 [compound 139]	< 50 nM	> 100 nM	< 50 nM	50 to 100 nM		
O=C(CSc1nnc(Br)n1-c1c(Cl)cc(C2CCC2)c2ccccc12)Nc1ccc(C(=O)O)cc1Cl [compound 25]	< 50 nM	< 50 nM	< 50 nM	< 50 nM		
CCOC(=O)CCNC(=O)c1ccc(NC(=O)CSc2nnc(Br)n2-c2ccc(C3CC3)c3ccccc23)c(Cl)c1 [compound 104]	< 50 nM	< 50 nM	< 50 nM	< 50 nM		
